Experimental data taken from patent US6956047B1, “Corticotropin releasing factor antagonists” (Pfizer Inc., priority 1995, dated 2005).
Where a name gives a salt, the structure may show the parent alone.

melting point [°C]	Structure (SMILES)
197 to 200	CCC(CC)Oc1cc(C)nc(Nc2c(C)cc(C)cc2C)c1C(=O)N(C)C (as salt: HCl) [Example 193, 4-(1-Ethyl-propoxy)-6,N,N-trimethyl-2-(2,4,6-trimethyl-phenylamino)-nicotinamide]
55 to 57	CCOC(=S)SCc1c(OC(CC)CC)cc(C)nc1Nc1c(C)cc(C)cc1C [Example 190, Dithiocarbonic acid O-ethyl ester S-[4-(1-ethyl-propoxy)-6-methyl-2-(2,4,6-trimethyl-phenylamino)-pyridin-3-ylmethyl] ester]
98 to 100	CCC(CC)Oc1cc(C)nc(Nc2c(C)cc(C)cc2C)c1 [Example 203, [4-(1-Ethyl-propoxy)-6-methyl-pyridin-2-yl]-(2,4,6-trimethyl-phenyl)-amine]
134 to 139	Cc1cc(C)c(Oc2nc(C)cc(C(O)C(F)(F)F)c2C)c(C)c1 (stereo not drawn) [Example 212, 1-[3,6-Dimethyl-2-(2,4,6-trimethyl-phenoxy)-pyridin-4-yl]-2,2,2-trifluoro-ethanol]
204 to 206	CCC(CC)Nc1cc(C)nc(Nc2c(C)cc(C)cc2C)c1C(N)=O [Example 232, 4-(1-Ethyl-propylamino)-6-methyl-2-(2,4,6-trimethyl-phenylamino)-nicotinamide]
174 to 176	CCC(CC)Oc1nc(C)nc(Nc2c(C)cc(C)cc2C)c1C(N)=O [Example 233, 4-(1-Ethyl-propoxy)-2-methyl-6-(2,4,6-trimethyl-phenylamino)-pyrimidine-5-carboxylic acid amide]
79 to 82	CCC(CC)Oc1cc(C)nc(Nc2c(C)cc(C)cc2C)c1NC(=O)CCl [Example 237, 2-Chloro-N-[4-(1-ethyl-propoxy)-6-methyl-2-(2,4,6-trimethyl-phenylamino)-pyridin-3-yl]-acetamide]
117 to 119	CCC(CC)Nc1cc(C)nc(Oc2c(C)cc(C)cc2C)c1CN [Example 248, [3-Aminomethyl-6-methyl-2-(2,4,6-trimethyl-phenoxy)-pyridin-4-yl]-(1-ethyl-propyl)-amine]
118 to 120	CCC(CC)Oc1nc(C)nc(Nc2c(C)cc(C)cc2C)c1C(=O)O [Example 273, 4-(1-Ethyl-propoxy)-2-methyl-6-(2,4,6-trimethyl-phenylamino)-pyrimidine-5-carboxylic acid]
121 to 123	CCC(CC)Oc1nc(C)nc(Nc2c(C)cc(C)cc2C)c1CO [Example 274, [4-(1-Ethyl-propoxy)-2-methyl-6-(2,4,6-trimethyl-phenylamino)-pyrimidin-5-yl]-methanol]
184 to 186	CCC(CC)Oc1cc(C)nc2c1[nH]c(=O)n2-c1c(C)cc(C)cc1C [Example 279, 7-(1-Ethyl-propoxy)-5-methyl-3-(2,4,6-trimethyl-phenyl)-1,3-dihydro-imidazo[4,5-b]pyridin-2-one]
151 to 153	CCC(CC)Oc1cc(C)nc2c1n(C)c(=O)n2-c1c(C)cc(C)cc1C [Example 280, 7-(1-Ethyl-propoxy)-1,5-dimethyl-3-(2,4,6-trimethyl-phenyl)-1,3-dihydro-imidazo[4,5-b]pyridin-2-one]
101 to 103	CCC(CC)Nc1cc(C)nc2c1nc(C)n2-c1c(C)cc(C)cc1C [Example 282, [2,5-Dimethyl-3-(2,4,6-trimethyl-phenyl)-3H-imidazo[4,5-b]pyridin-7-yl]-(1-ethyl-propyl)-amine]
158 to 160	CCC(CC)Nc1cc(C)nc2c1nc(N)n2-c1c(C)cc(C)cc1C [Example 283, N7-(1-Ethyl-propyl)-5-methyl-3-(2,4,6-trimethyl-phenyl)-3H-imidazo[4,5-b]pyridine-2,7-diamine]

Continued, molecule first:

Structure (SMILES)	melting point [°C]
CCC(CC)Oc1cc(C)nc(Nc2c(C)cc(C)cc2C)c1CN(C)C.Cl	85 to 88
CCCN(CC)c1cc(C)nc(Oc2c(C)cc(C)cc2C)c1C (as salt: HCl) [Example 72, [3,6-Dimethyl-2-(2,4,6-trimethyl-phenoxy)-pyridin-4-yl]-ethyl-propyl-amine]	167 to 169
CCN(CC)c1cc(C)nc(Oc2c(C)cc(C)cc2C)c1C (as salt: HCl) [Example 73, [3,6-dimethyl-2-(2,4,6-trimethyl-phenoxy)-pyridin-4-yl]-diethyl-amine]	180 to 181
CCN(C)c1cc(C)nc(Oc2c(C)cc(C)cc2C)c1C (as salt: HCl) [Example 74, [3,6-Dimethyl-2-(2,4,6-trimethyl-phenoxy)-pyridin-4-yl]-ethyl-methyl-amine]	173 to 174
CCCCN(CC)c1cc(C)nc(Oc2c(C)cc(Cl)cc2C)c1C (as salt: HCl) [Example 76, Butyl-[2-(4-chloro-2,6-dimethyl-phenoxy)-3,6-dimethyl-pyridin-4-yl]-ethyl-amine]	177 to 178
CCCN(CC)c1cc(C)nc(Oc2c(C)cc(Cl)cc2C)c1C (as salt: HCl) [Example 77, [2-(4-chloro-2,6-dimethyl-phenoxy)-3,6-dimethyl-pyridin-4-yl]-ethyl-propyl-amine]	74 to 76
CCN(CC)c1cc(C)nc(Oc2c(C)cc(Cl)cc2C)c1C (as salt: HCl) [Example 78, [2-(4-chloro-2,6-dimethyl-phenoxy)-3,6-dimethyl-pyridin-4-yl]-diethyl-amine]	184 to 185
CCC(CC)Oc1nc(C)nc(Oc2c(C)cc(C)cc2C)c1C#N [Example 35, 4-(1-Ethyl-propoxy)-2-methyl-6-(2,4,6-trimethyl-phenoxy)-pyrimidine-5-carbonitrile]	128 to 130
CCC(CC)Oc1cc(C)nc(Oc2c(C)cc(COC)cc2C)c1C [Example 67, 4-(1-Ethyl-propoxy)-2-(4-methoxymethyl-2,6-dimethyl-phenoxy)-3,6-dimethyl-pyridine]	58 to 60
CCC(CC)Nc1cc(C)nc(Sc2c(C)cc(C)cc2C)c1C [Example 69, [3,6-Dimethyl-2-(2,4,6-trimethyl-phenylsulfanyl)-pyridin-4-yl]-(1-ethyl-propyl)-amine]	108 to 110
CCNc1cc(C)nc(Sc2c(C)cc(C)cc2C)c1C [Example 71, [3,6-dimethyl-2-(2,4,6-trimethyl-phenylsulfanyl)-pyridin-4-yl]-ethyl-amine]	114 to 116
CCC(CC)Nc1cc(C)nc(Oc2c(C)cc(Cl)cc2C)c1N [Example 97, 2-(4-Chloro-2,6-dimethyl-phenoxy)-N4-(1-ethyl-propyl)-6-methyl-pyridine-3,4-diamine]	72 to 74
CCC(CC)Nc1cc(C)nc(Oc2c(C)cc(C)cc2C)c1NC(C)=O [Example 98, N-[4-(1-Ethyl-propylamino)-6-methyl-2-(2,4,6-trimethyl-phenoxy)-pyridin-3-yl]-acetamide]	154 to 156
CCC(COC)Nc1cc(C)nc(Oc2c(C=O)cccc2OC)c1[N+](=O)[O-] (stereo not drawn) [Example 114, 3-Methoxy-2-[4-(1-methoxymethyl-propylamino)-6-methyl-3-nitro-pyridin-2-yloxy]-benzaldehyde]	126.5 to 130.5
CCC(COC)Nc1cc(C)nc(Oc2c(OC)cc(OC)cc2OC)c1[N+](=O)[O-] (stereo not drawn) [Example 114, (1-Methoxymethyl-propyl)-[6-methyl-3-nitro-2-(2,4,6-trimethoxy-phenoxy)-pyridin-4-yl]-amine]	126.8 to 129.5
CCC(Nc1cc(C)nc(Oc2c(C)cc(Cl)cc2C)c1CO)C(C)O (stereo not drawn) [Example 138, 3-[2-(4-Chloro-2,6-dimethyl-phenoxy)-3-hydroxymethyl-6-methyl-pyridin-4-ylamino]-pentan-2-ol]	180 to 182
CCC(O)C(CC)Nc1cc(C)nc(Oc2c(C)cc(Cl)cc2C)c1CO (stereo not drawn) [Example 139, 4-[2-(4-Chloro-2,6-dimethyl-phenoxy)-3-hydroxymethyl-6-methyl-pyridin-4-ylamino]-hexan-3-ol]	145 to 148
C#CC(CC)Nc1cc(C)nc(Oc2c(C)cc(C)cc2C)c1C(=O)O (stereo not drawn) [Example 140, 4-(1-Ethyl-prop-2-ynylamino)-6-methyl-2-(2,4,6-trimethyl-phenoxy)-nicotinic acid]	131 to 133
CCC(CC)Oc1cc(C)nc(Oc2c(C)cc(C)cc2C)c1[N+](=O)[O-] [Example 173, 4-(1-Ethyl-propoxy)-6-methyl-3-nitro-2-(2,4,6-trimethyl-phenoxy)-pyridine]	106 to 109
CCC(CC)Oc1cc(C)nc(Nc2c(C)cc(C)cc2C)c1C(=O)n1ccnc1 [Example 183, [4-(1-Ethyl-propoxy)-6-methyl-2-(2,4,6-trimethyl-phenylamino)-pyridin-3-yl]-imidazol-1-yl-methanone]	120 to 122
CCC(CC)Oc1cc(C)nc(Nc2c(C)cc(C)cc2C)c1CC(C(=O)OC)C(=O)OC [Example 185, 2-[4-(1-Ethyl-propoxy)-6-methyl-2-(2,4,6-trimethyl-phenylamino)-pyridin-3-ylmethyl]-malonic acid dimethyl ester]	96 to 98
CCC(CC)Oc1cc(C)nc(Nc2c(C)cc(C)cc2C)c1CNC(=O)CCl [Example 188, 2-Chloro-N-[4-(1-ethyl-propoxy)-6-methyl-2-(2,4,6-trimethyl-phenylamino)-pyridin-3-ylmethyl]-acetamide]	142 to 144
